Laboratory results published in PMC7480105, “Wbox2: A clathrin terminal domain–derived peptide inhibitor of clathrin-mediated endocytosis” (The Journal of Cell Biology, 2020).
No end group written: not given here.

What was measured:
[1] = test system: TfnR uptake via CME in ARPE/HPV cells; experiment: TfnR uptake (in-cell ELISA) after peptide preincubation; assay type: cell-based
Protocol: Peptides encoding the TAT sequence (YGRKKRRQRRR) followed by 10 amino acid sequences covering the four reported binding sites on the clathrin terminal domain (Fig. 7 A) were synthesized by GenScript (Piscataway, NJ) with >95% purity. Peptides were dissolved in dH2O and further diluted in PBS4+ (1× PBS buffer plus 0.2% BSA, 1 mM CaCl2, 1 mM MgCl2, and 5 mM D-glucose) or cell culture medium (for imaging) when applied to cells. Peptide solutions were stored at −20°C.
Internalization of TfnR, CD44, CD59, and Biotin-Tfn was quantified by in-cell ELISA following established protocols ([Conner and Schmid, 2003]; [Srinivasan et al., 2018]). Cells were seeded in 96-well plates (Costar) at 60–70% confluence and grown overnight. Before the assay, cells were starved for 30 min in PBS4+ at 37°C or treated with peptides in PBS4+ at 37°C for the indicated times. After starvation, cells were moved to 4°C, and culture medium was replaced with cold PBS4+ containing 5 µg/ml HTR-D65 (anti-TfnR mAb; [Schmid and Smythe, 1991]), anti-human CD44 or anti-human CD59 (BD PharMingen) or 5 µg/ml Biotin-Tfn (Sigma-Aldrich). For single-round assays, the above reagents were kept with cells for 20 min at 4°C and then washed out before uptake assay. For multiround assays, the above reagents were kept with cells throughout the uptake process. In parallel, some cells were kept at 4°C for the measurement of surface-bound ligands and blank controls, and some were incubated in a 37°C water bath for the indicated times. Acid wash (0.2 M acetic acid and 0.2 M NaCl, pH 2.3) was used to remove surface-bound antibodies, followed by washing with cold PBS. All were fixed with 4% PFA (Electron Microscopy Sciences) in PBS for 30 min at 37°C. 0.1% Triton X-100 was added for 6.5 min to permeabilize cells, followed by addition of blocking buffer. HTR-D65–, CD44-, and CD59-treated cells were blocked with Q-PBS (PBS, 2% BSA, 0.1% lysine, and 0.01% saponin, pH 7.4), and Biotin-Tfn–treated cells were blocked with 2% casein. Surface-bound and internalized HTR-D65, CD44, and CD59 were probed with goat anti-mouse antibody conjugated with HRP (Sigma-Aldrich), and Biotin-Tfn was probed with Streptavidin-POD conjugate (Sigma-Aldrich). Color was developed using o-phenylenediamine dihydrochloride (OPD) solution (Sigma-Aldrich), and absorbance was read at 490 nm (Biotek Synergy H1 Hybrid Reader). Cell number variation among wells was accounted for by bicinchoninic acid assay reading at 562 nm.

SNX9 = SNX9 (Homo sapiens, UniProt Q9Y5X1); experiment: Isothermal titration calorimetry with SNX9; assay type: binding; conditions: ITC
Source text: GUSSI was further used to output the figures presented.

TD–AP2 interactions = experiment: GST-TD (1–580) pulldown of AP2 from mouse brain extract; assay type: biochemical; conditions: increasing peptide concentrations, overnight at 4°C, Western blot, three independent runs (Fig. 9 B, C)
Protocol: A mouse brain was homogenized using a Dounce tissue grinder (Sartorius) in 1 ml MES buffer (100 mM Mes, 1 mM EGTA, 0.5 mM MgCl2, and 0.1 mM PMSF, pH 6.4). After spinning at 5,000 g and 4°C for 3 min, the supernatant was ultracentrifuged at 110,000 g for 60 min. The resulting pellet was then resuspended in extraction buffer (3 vol of 1 M Tris, pH 8, 1 vol Mes buffer, with added PMSF and DTT to 0.1 mM each) for 30 min at room temperature. The resuspended solution was ultracentrifuged at 110,000 g for 60 min to collect supernatant containing released coat proteins. The brain extract buffer was exchanged to pulldown reaction buffer (50 mM Tris, 150 mM NaCl, and 0.1 mM EGTA, pH 7.5) using zeba spin desalting columns (Thermo Fisher Scientific).
In the pulldown assay, 75 µg GST-TD (residues 1–580) in reaction buffer was mixed with coat protein fractions (10% of total extract from a mouse brain) and the indicated concentrations of peptides. The mixture was incubated with 50 µl of a 50% slurry of glutathione Sepharose 4B beads (ABT) and left to rotate overnight at 4°C. Subsequently, beads were collected by spinning down at 1,000 g for 2 min and washed twice with reaction buffer. The beads were resuspended in Laemmli sample buffer and denatured at 95°C before running on 7.5% SDS-PAGE and Western blotting.

cell viability = experiment: Cell viability, Cell Counting Kit 8 (CCK-8); assay type: cell-based; conditions: for cytotoxicity IC50 relative to concentration needed to inhibit CME: cytotoxicity vs CME inhibition
[2] = target: hinge + appendage domain of the AP2 β2 subunit (β2-HAD) (UniProt P63010); conditions: read-out: binding affinity KD to β2-HAD; ITC, 20°C, pH 7.4; 1.2 mM Wbox2 injected into 200 µM β2-HAD; A+B <–> AB model; binds a fraction of purified β2-HAD
Protocol: Binding of TAT, Wbox2_mutant, and Wbox2 to SNX9 and β2-HAD was investigated by ITC using a MicroCal iTC200 (GE Healthcare Life Sciences). Measurements were performed at 20°C in reaction buffer: 20 mM Hepes, 150 mM NaCl, and 1 mM TCEP, pH 7.4. Protein and peptide concentrations were determined by absorbance at 280 and 205 nm, respectively. The peptides were injected from a syringe in 21 steps up to a molar excess over the protein concentration. Titration curves were executed with NITPIC and fitted with SEDPHAT.

cytotoxicity = test system: cytotoxicity; parameters: method as in Rosselli-Murai et al., 2018; conditions: ref Rosselli-Murai et al., 2018; cited from earlier work

Chain of SNX9 (Q9Y5X1 whole entry, species assumed): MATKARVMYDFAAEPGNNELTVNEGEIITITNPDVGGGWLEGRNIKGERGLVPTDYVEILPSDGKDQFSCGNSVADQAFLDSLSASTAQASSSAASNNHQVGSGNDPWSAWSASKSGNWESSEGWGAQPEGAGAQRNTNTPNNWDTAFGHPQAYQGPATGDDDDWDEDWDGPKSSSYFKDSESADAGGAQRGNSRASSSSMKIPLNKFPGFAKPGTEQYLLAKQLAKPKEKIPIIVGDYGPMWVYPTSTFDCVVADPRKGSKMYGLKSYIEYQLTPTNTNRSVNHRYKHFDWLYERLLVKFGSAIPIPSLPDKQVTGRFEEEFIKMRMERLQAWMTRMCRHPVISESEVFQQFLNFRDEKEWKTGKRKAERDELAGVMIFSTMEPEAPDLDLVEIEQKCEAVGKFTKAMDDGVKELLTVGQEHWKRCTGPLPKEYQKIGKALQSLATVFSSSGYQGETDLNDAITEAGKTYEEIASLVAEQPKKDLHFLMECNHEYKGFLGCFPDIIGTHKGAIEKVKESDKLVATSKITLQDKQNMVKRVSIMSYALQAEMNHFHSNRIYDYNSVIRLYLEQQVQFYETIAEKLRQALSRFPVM
Chain of hinge + appendage domain of the AP2 β2 subunit (β2-HAD) (P63010 2-937): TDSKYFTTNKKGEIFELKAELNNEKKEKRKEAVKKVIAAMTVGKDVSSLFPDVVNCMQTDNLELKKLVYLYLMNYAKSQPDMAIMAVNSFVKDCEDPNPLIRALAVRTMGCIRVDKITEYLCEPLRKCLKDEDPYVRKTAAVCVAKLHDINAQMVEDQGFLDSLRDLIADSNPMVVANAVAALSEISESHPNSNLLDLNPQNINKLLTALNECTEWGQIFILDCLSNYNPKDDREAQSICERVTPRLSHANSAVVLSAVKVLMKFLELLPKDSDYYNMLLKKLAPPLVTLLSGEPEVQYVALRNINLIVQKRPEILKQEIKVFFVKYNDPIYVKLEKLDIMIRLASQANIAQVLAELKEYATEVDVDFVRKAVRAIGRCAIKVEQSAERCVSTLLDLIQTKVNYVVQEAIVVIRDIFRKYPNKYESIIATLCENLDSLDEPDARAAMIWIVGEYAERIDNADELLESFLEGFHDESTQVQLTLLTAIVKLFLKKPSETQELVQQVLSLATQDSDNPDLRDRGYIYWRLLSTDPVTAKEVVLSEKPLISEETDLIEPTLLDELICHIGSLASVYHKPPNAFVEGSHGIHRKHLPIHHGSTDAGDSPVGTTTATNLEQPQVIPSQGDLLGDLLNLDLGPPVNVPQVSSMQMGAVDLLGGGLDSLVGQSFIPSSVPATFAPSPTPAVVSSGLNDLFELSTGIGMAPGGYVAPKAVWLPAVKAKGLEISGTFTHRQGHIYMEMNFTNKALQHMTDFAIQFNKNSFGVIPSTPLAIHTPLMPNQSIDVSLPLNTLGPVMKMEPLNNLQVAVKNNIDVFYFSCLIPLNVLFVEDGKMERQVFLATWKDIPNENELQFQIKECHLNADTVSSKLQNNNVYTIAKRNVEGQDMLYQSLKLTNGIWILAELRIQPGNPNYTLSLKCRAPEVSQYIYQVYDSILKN

## YGRKKRRQRRR [TAT, arginine-rich TAT peptide, negative control, reference compound]
[1]; 60-min preincubation at 37°C (Fig. 7 F), TAT at concentrations <100 µM
  inhibitory activity on TfnR uptake, concentration curve: did not inhibit
SNX9; 1.8 mM peptide injected into 50 µM SNX9
  interaction with SNX9 compared with Wbox2: much weaker interactions
TD–AP2 interactions
  inhibition of AP2 pulldown by GST-TD: much weaker inhibition

## YGRKKRRQRRRGFSCQIIGIS [Wbox2]
[1]; 60-min preincubation with peptide at 37°C, concentration curves, n = 4 replicates (Fig. 7 F), read-out: IC50 for inhibition of TfnR uptake
  IC50: ~3 µM
Cell viability; CCK-8, n = 4 replicates (Fig. S5)
  IC50 for cytotoxicity: > 40 µM
Cell viability; concentrations ≤30 µM, CCK-8, n = 4 replicates (Fig. S5)
  effect on cell viability: no effect
Cell viability
  cytotoxicity IC50 relative to concentration needed to inhibit CME: 10 fold
Cell viability; listed as CMEpi
  cytotoxicity IC50 relative to concentration needed to inhibit CME: ~ 10 fold
SNX9; 20°C, 20 mM Hepes, 150 mM NaCl, 1 mM TCEP, pH 7.4, 1.8 mM Wbox2 injected into 50 µM SNX9, two nonsymmetric sites model, read-out: binding affinity KD1, first Wbox2 binding site on SNX9
  Kd: 4 µM
[2]
  Kd: 37.5 µM

## pitstop
cytotoxicity
  cytotoxic concentration relative to CME-inhibitory concentration: cytotoxic at concentrations only approximately twofold higher
